Data published in patent US20030097221A1, “Detection and characterization of psychoactives using parallel multi-site assays in brain tissue” (priority 2001, published 2003).
Values joined by “and” are separate entries in the source; they are usually repeats but may differ in a detail not shown here. Identical values can stand only once.

Legend:
Assay type in all cases: cell-based, rat
[1] = system: glutamate receptor-mediated evoked excitatory synaptic transmission, hippocampal slice CA1; assay: Paired-pulse evoked fEPSP in CA1, Schaffer collateral stimulation (assays SC50, SC200), MED64 multi-electrode array; parameters: key to SC 50 ms Amplitude fEPSP 1st, Mean / SC 50 ms Amplitude fEPSP 2nd, Mean / SC 200 ms Widths fEPSP 1st, Mean / SC 200 ms Widths fEPSP 2nd, Mean: fractional change vs. last 5 min of pre-wash-in control phase
Protocol: (§1) A 17-24 day old Sprague Dawley rat was decapitated after anesthesia with halothane (2-bromo-2-chloro-1,1,1-trifluoroethane; Sigma; B4388), and the whole brain was removed. The brain was immediately soaked for ˜2 min in ice-cold, oxygenated preparation buffer of the following composition (in mM): 124 NaCl, 26 NaHCO3, 10 glucose, 3 KCl, 1.25 NaH2PO4, 2 CaCl2, and 2 MgSO4. Appropriate portions of the brain were trimmed and placed on the ice-cold stage of a vibrating tissue slicer (Leica, Nussloch, Germany; VT-1000S). The stage was immediately filled with both oxygenated and frozen preparation buffers. The thickness of each tissue slice was 350 μm. Each slice was gently taken off the blade, and immediately soaked in the oxygenated artificial cerebrospinal fluid (ACSF) for at least 1 hr at room temperature. Then a slice was placed on the center of the MED probe. The slice was positioned to cover the 8×8 array. After positioning the slice, the MED probe was immediately placed in a box filled with 95% O2 and 5% CO2.
During recording, the slices were continuously perfused with a solution of the following composition: ACSF (in mM): 124 NaCl, 26 NaHCO3, 10 glucose, 3 KCl, 1.25 kH2PO4, 2 CaCl2, 1 MgSO4. All compounds were bath applied at known concentrations and were prepared daily from frozen aliquots. Compounds were purchased from Sigma. Ampakines (CX516, CX546, CX554) were made fresh everyday, and used at concentrations: CX516, 250 μM; CX546, 250 μM; and CX554, 30 μM.
Baseline, application, and recovery time was usually at 10, 20, and 30 min respectively.
During electrophysiological recording, the slices on the MED probe were placed in a small CO2 incubator (Asahi Lifescience; model 4020) at 32° C. The slices were placed on an interface, and a moisturized with a 95% O2 and 5% CO2 gas mixture.
Evoked field potentials at all 64 sites (minus stimulation sites) were recorded simultaneously with the multichannel recording system (Panasonic: MED64 system) at a 20 kHz sampling rate. In the case of the evoked response, one of the planar microelectrodes out of the 64 available was used for the stimulating cathode. Bipolar constant-current pulses (10-50 μA; 0.1 ms) were produced by the data acquisition software via the isolator. The stimulating microelectrode was selected by the 64-switch box.
All assays employ paired-pulse stimulation at various rat hippocampal sites to elicit evoked responses. The resulting field EPSP recordings were analyzed using Matlab software (The MathWorks, Inc.) by computing several response measures such as amplitude, halfwidth, and negative area, which apply to both the first and second evoked reponses. Amplitude was defined as the maximum depolarization magnitude relative to the average baseline reading prior to the first stimulation pulse. Halfwidth was defined as the duration of the depolarization phase of the evoked response at half its maximum amplitude value. Negative area was obtained by taking the magnitude of the integral of the evoked response curve over all segments with the same polarity as the depolarization phase. This integral spans a time window of 25 msec beginning one msec after the stimulation pulse.
Amplitudes and halfwidths for both first and second elicited responses were computed for assays SC50, SC200, and CA3-1—50. For DG50 only first and second amplitudes were computed. Negative areas for first and second responses were computed for SC50, SC200, CA3-1—50, and MF50.
All response paramters were utilized to quantify candidate sample composition effects on the hippocampus. For a given response parameter, the candidate sample composition effect was defined as the percent change of the average measure during the last five minutes of the wash-in phase with respect to the average measure of the last five minutes of the preceding, pre-wash-in control phase. […]

[2] = system: hippocampal slice regions (CA1, DG, MF); assay: Comparison between regions of the slice, area under the curve for all 4 assays (FIG. 9); settings: prediction drawn from the results of FIG. 9
Protocol: All assays employ paired-pulse stimulation at various rat hippocampal sites to elicit evoked responses. The resulting field EPSP recordings were analyzed using Matlab software (The MathWorks, Inc.) by computing several response measures such as amplitude, halfwidth, and negative area, which apply to both the first and second evoked reponses. Amplitude was defined as the maximum depolarization magnitude relative to the average baseline reading prior to the first stimulation pulse. Halfwidth was defined as the duration of the depolarization phase of the evoked response at half its maximum amplitude value. Negative area was obtained by taking the magnitude of the integral of the evoked response curve over all segments with the same polarity as the depolarization phase. This integral spans a time window of 25 msec beginning one msec after the stimulation pulse. […]
(§2) All response paramters were utilized to quantify candidate sample composition effects on the hippocampus. […]
To compare the response of tissue slices to candidate sample compositions between different regions of the slice, the area under the curve for all 4 assays was calculated.
To compare the effect of compounds in candidate sample compositions between different regions of a tissue slice, the area under the curve for all 4 assays was calculated. […]

[3] = system: glutamate receptor-mediated evoked excitatory synaptic transmission, hippocampal slice dentate gyrus; assay: Paired-pulse evoked fEPSP in dentate gyrus (assay DG50), MED64
Protocol: as §1, with “CO2. […]” for “CO2.”
(§3) Evoked field potentials at all 64 sites (minus stimulation sites) were recorded simultaneously with the multichannel recording system (Panasonic: MED64 system) at a 20 kHz sampling rate. […]
(§4) All assays employ paired-pulse stimulation at various rat hippocampal sites to elicit evoked responses. The resulting field EPSP recordings were analyzed using Matlab software (The MathWorks, Inc.) by computing several response measures such as amplitude, halfwidth, and negative area, which apply to both the first and second evoked reponses. Amplitude was defined as the maximum depolarization magnitude relative to the average baseline reading prior to the first stimulation pulse. […]
The polarity of the evoked responses for assay DG50 was reversed before analysis because of the inverted voltage values recorded by the DG50 electrode. Assays SC50, SC200, MF50, and CA3-1—50, however, were analyzed without such a reversal. […]
as §2

[4] = system: glutamate receptor-mediated evoked excitatory synaptic transmission, hippocampal slice mossy fibers; assay: Paired-pulse evoked fEPSP, mossy fibers (assay MF50), MED64; settings: 250 μM; 50 ms inter-pulse delay
Protocol: A 17-24 day old Sprague Dawley rat was decapitated after anesthesia with halothane (2-bromo-2-chloro-1,1,1-trifluoroethane; Sigma; B4388), and the whole brain was removed. The brain was immediately soaked for ˜2 min in ice-cold, oxygenated preparation buffer of the following composition (in mM): 124 NaCl, 26 NaHCO3, 10 glucose, 3 KCl, 1.25 NaH2PO4, 2 CaCl2, and 2 MgSO4. Appropriate portions of the brain were trimmed and placed on the ice-cold stage of a vibrating tissue slicer (Leica, Nussloch, Germany; VT-1000S). The stage was immediately filled with both oxygenated and frozen preparation buffers. The thickness of each tissue slice was 350 μm. […]
as §3, §4

[5] = CX546 250 μM, individual slice files, normalized change over control
[6] = CX546 250 μM, n = 5, normalized change over control

## O=C(c1ccc2c(c1)OCCO2)N1CCCCC1 [CX546]
[1]; 250 μM, 50 ms or 200 ms delay between stimulation pulses
  half-width of both responses in CA1: increase in the half-width
[1]; 250 μM, 50 ms protocol
  change of the first response (amplitude): no change
  decrease in the second response amplitude: 9±3%
[1]; 250 μM, 200 ms protocol
  effect on amplitude of both responses: no effect
[1]; 250 μM, 200 ms protocol, summary of Table 2
  increase of the halfwidth of first and second fEPSP: 14-15%
[1]; CX516, CX546 250 μM, CX554 30 μM
  kind of modulation of the responses in CA1 (halfwidth vs amplitude): selectively increases halfwidth but not the amplitude
[1]; [5]
  SC 50 ms Amplitude fEPSP 1st: 0.063 and 0.087 and 0.012 and −0.022 and 0.025
  SC 50 ms Amplitude fEPSP 2nd: 0.022 and −0.124 (2×) and −0.130 and −0.088
  SC 50 ms Widths fEPSP 1st: 0.096 and 0.155 and 0.114 and 0.202 and 0.102
  SC 50 ms Widths fEPSP 2nd: 0.067 and 0.026 and −0.025 and 0.065 and 0.031
  SC 200 ms Amplitude fEPSP 1st: 0.064 and 0.083 and 0.028 and −0.007 and 0.021
  SC 200 ms Amplitude fEPSP 2nd: 0.047 and 0.061 and 0.011 and −0.015 and 0.013
  SC 200 ms Widths fEPSP 1st: 0.089 and 0.166 and 0.141 and 0.252 and 0.105
  SC 200 ms Widths fEPSP 2nd: 0.102 and 0.207 and 0.180 and 0.189 and 0.132
[1]; CX546 250 μM, n = 5
  SC 50 ms Amplitude fEPSP 1st, Change over Control (%): 3.296%
  SC 50 ms Amplitude fEPSP 2nd, Change over Control (%): −8.884%
  SC 50 ms Widths fEPSP 1st, Change over Control (%): 13.386%
  SC 50 ms Widths fEPSP 2nd, Change over Control (%): 3.276%
  SC 200 ms Amplitude fEPSP 1st, Change over Control (%): 3.764%
  SC 200 ms Amplitude fEPSP 2nd, Change over Control (%): 2.310%
  SC 200 ms Widths fEPSP 1st, Change over Control (%): 15.064%
  SC 200 ms Widths fEPSP 2nd, Change over Control (%): 16.206%
[1]; [6]
  SC 50 ms Amplitude fEPSP 1st, Mean: 0.033
  SC 50 ms Amplitude fEPSP 2nd, Mean: −0.089
  SC 50 ms Widths fEPSP 1st, Mean: 0.134
  SC 50 ms Widths fEPSP 2nd, Mean: 0.033
  SC 200 ms Amplitude fEPSP 1st, Mean: 0.038
  SC 200 ms Amplitude fEPSP 2nd, Mean: 0.023
  SC 200 ms Widths fEPSP 1st, Mean: 0.151
  SC 200 ms Widths fEPSP 2nd, Mean: 0.162
[1]; area under the curve, representative slices, FIG. 9
  area of the second response (fEPSP) in CA1: decreased
[2]
  degree to which ampakines enhance activation of interneurons (rank order): CX554>CX546>CX516
[3]; 250 μM, 50 ms inter-pulse delay
  responses recorded in dentate gyrus (amplitude): decrease in the amplitude
[3]; area under the curve, representative slices, FIG. 9, CX546 250 μM, CX554 30 μM per Example 3
  second response (fEPSP) in DG: not noticeably altered
[4]
  mossy fibers' response (area): increase
